# Reference: patent publication US12173283B2, “Cell model for in vitro evaluation of compound-induced skin sensitization and a constructing method therefor” (South China University Of Technology, priority 2017, dated 2024)
# Experiments:
# [1] = system: HMOX1 gene (luciferase reporter); assay: Luciferase expression assay in HMOX1-luciferase knock-in HaCaT monoclone No. 38 (detection of compound sensitization); assay type: cell-based; details: human, HMOX1-luciferase knock-in HaCaT cells, clone No. 38, detection range of concentration 4 μM˜1000 μM, 48 h incubation, compared with negative control group, read-out: expression of luciferase (fold induction), highest reached
# Experimental: 4. Analysis of sensitization of compounds after gene knock-in Sensitization of compounds was detected using clone No. 38.
# Pre-cultured cells were centrifuged followed by removal of the supernatant, and were resuspended in fresh complete medium. The cell concentration was calculated with a cell counter after dilution for 10 times, and finally was adjusted to 50,000 cells/well. 200 μL of the cell solution was added to each well of a white opaque 96-well plate to ensure that the number of cells per well was substantially the same. The cell was incubated for 24 h at 37° C. in a 5% CO2 incubator. After 24 h, the medium was removed, and a working solution was prepared with 1% FBS medium. […] After 48 h, luciferase expression was measured and cell viability was detected using MTT.
# • (1) 48 hours after treatment, the medium containing the reagent was discarded, and the plate was washed twice with PBS; • (2) 100 μL of PBS was added to each well, and then an equal volume of the luciferase substrate was added; • (3) The plate was shaken at 200 rpm for 2 min to fully lyse the cells; • (4) A Tecan Infinite® 200 Pro multi-function microplate reader selecting luminescence, integration 0.5s was used and the reading was recorded. […]
# HMOX1 gene target site = assay: T7EI digestion identification of target site cleavage by sgRNA co-transfected with hCas9 into 293T cells; assay type: cell-based; details: co-transfected with hCas9 plasmid, 72 hours, FIG. 1
# Experimental: sgRNA-1, sgRNA-10, sgRNA-13 plasmid and hCas9 plasmid were co-transfected into 293T cells respectively. After 72 hours, the genome was extracted and expanded with the primers in Table 2 on the target site, and the PCR product was identified by T7EI digestion.
# The sgRNA-1, sgRNA-10, and sgRNA-13 plasmids were co-transfected into the 293T cells with a H-Cas9 plasmid (using liposome transfection), and the transfection steps were as follows: • (1) The prior medium was discarded, and 2 mL of fresh medium for incubation was added; • (2) 0.5 μg of the sgRNA recombinant plasmid and 0.5 μg of the hCas9 plasmid were dissolved in 100 μL of DMEM (H), 3 μL of a liposome transfection reagent was diluted to 100 μL, and the diluted liposome transfection reagent was added to the diluted plasmid solution. The mixture was gently blew evenly, formulated into a transfection complex, and reacted at room temperature for 15 min; • (3) The transfection complex was dropped into 6 wells, and reacted at 37° C. for 5 h. Then the reaction solution was discarded, and fresh medium was added for cultivation. Genome Extraction Process
# PCR amplification of sgRNA-1, sgRNA-10, and sgRNA-13 was carried out using the extracted genome after transfection as a template; PCR amplification was performed using the wild type (WT) as a template and primers with SEQ ID NO: 6-7 as shown in Table 2. […]
molecule,measurement,setting,value
Sc1nc2ccccc2s1 [2-mercaptobenzothiazole],fold induction at 48 h,[1],≤ 30
OCC=Cc1ccccc1 [cinnamyl alcohol],fold induction at 48 h,[1],≤ 21
"sgRNA-1: specific sgRNA near the stop codon of HMOX1 gene, sequence TTAACAGGTGGGCGTGCATCAGG, Exon 5 (expressed or natural sequence)",cleavage of the target site (T7EI digestion),HMOX1 gene target site,can effectively cleave the target site
"sgRNA-13: specific sgRNA near the stop codon of HMOX1 gene, sequence GCTTTATGCCATGTGAATGCAGG, Exon 5 (expressed or natural sequence; the letters are possibly those of the target site)",cleavage of the target site (T7EI digestion),HMOX1 gene target site,can effectively cleave the target site
